Results on 13 molecules are retold here after patent US20260022142A1, “MACROCYCLIC IMMUNOMODULATORS” (Bristol-Myers Squibb Company, priority 2022, published 2026).

Numbered stars: 1 amine (or outer) side, 2 acyl side, 3 side chain; on linkers, the order of the positions; unused ones are H or OH. Bridge positions count the residues as written; N and C are the ends. Square brackets hold non-standard residues; d marks the D form. Peptide text beside a SMILES is read from it. * marks the point of attachment. Phe(4-CH2CH2COOH) = N[C@@H](Cc1ccc(CCC(=O)O)cc1)C(=O)O; Bip = N[C@@H](Cc1ccc(-c2ccccc2)cc1)C(=O)O; X10 = O=C([C@H](Cc1cc[nH]c1)N[*:1])[*:2]; Phe(3-Me) = Cc1cccc(C[C@H](N)C(=O)O)c1; Cha = N[C@@H](CC1CCCCC1)C(=O)O; Cit = NC(=O)NCCC[C@H](N)C(=O)O; Carboxymethyl = O=C(O)C*; Orn = NCCC[C@H](N)C(=O)O; dNMeA = CN[C@H](C)C(=O)O; Aun = NCCCCCCCCCCC(=O)O; Dab = NCC[C@H](N)C(=O)O; Dap = NC[C@H](N)C(=O)O

For the experiment, the target named is T1, PD-1/PD-L1 interaction (PE-labeled human PD-L1-Ig binding to Jurkat cell line over-expressing human PD-1) (Homo sapiens, UniProt Q15116).
T1 construct: expressed in transfected cells; host or cells: Jurkat
T1 sequence (Q15116 25-288): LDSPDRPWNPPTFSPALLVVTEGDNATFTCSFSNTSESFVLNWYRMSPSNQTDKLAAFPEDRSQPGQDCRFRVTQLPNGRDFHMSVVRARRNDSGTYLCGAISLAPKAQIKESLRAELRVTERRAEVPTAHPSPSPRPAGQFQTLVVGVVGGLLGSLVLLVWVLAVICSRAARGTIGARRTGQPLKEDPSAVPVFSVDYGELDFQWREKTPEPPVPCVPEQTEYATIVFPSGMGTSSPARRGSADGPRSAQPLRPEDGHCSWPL
Nature of the experiment: Jurkat-PD-1 Cell Binding High-Content Screening Assay (CBA). Type of experiment: cell-based. The conditions noted are these: Jurkat cell line over-expressing human PD-1; PE-labeled PD-L1-Ig 20 nM final; read-out: Jurkat hPD1-PDL1 IC50. In short, it runs like this:
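Read-out is high-content imaging of cell-bound phycoerythrin-tagged PD-L1-Ig on fixed, Hoechst-counterstained Jurkat cells that over-express human PD-1. Compound exposure lasts 2 h at 37° C before the labeled ligand (20 nM final) is added for a further hour.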
Regarding `Cc1cccc(C[C@@H]2NC(=O)[C@H](CC(=O)O)NC(=O)[C@H](Cc3ccc(OCC(=O)O)cc3)NC(=O)[C@H](CCCNC(=N)N)NC(=O)CSC[C@@H](C(=O)N[C@@H](CCN)C(=O)NCCCCCCCCCCC(=O)O)NC(=O)[C@H](CCC(N)=O)NC(=O)[C@H](C(C)C)NC(=O)[C@H](CC3CCCCC3)NC(=O)[C@H](CCN)NC(=O)[C@@H](CC(C)C)NC(=O)[C@H](CCN)NC(=O)[C@H](CCCNC(N)=O)NC(=O)[C@H](Cc3ccc(-c4ccccc4)cc3)NC(=O)[C@H](C(C)C)NC2=O)c1` [Compound 2797] ({CH2CO}-RY(Carboxymethyl)D[Phe(3-Me)]V[Bip][Cit][Dab][dL][Dab][Cha]VQC[Dab][Aun]-OH; thioether N-14), the IC50 is 11.8 nM. Take `Cc1cccc(C[C@@H]2NC(=O)[C@H](CC(=O)O)NC(=O)[C@H](Cc3ccc(OCC(=O)O)cc3)NC(=O)[C@H](CCCNC(=N)N)NC(=O)CSC[C@@H](C(=O)N[C@@H](CCCN)C(=O)NCCCCCCCCCCC(=O)O)NC(=O)[C@H](CCC(N)=O)NC(=O)[C@H](C(C)C)NC(=O)[C@H](CC3CCCCC3)NC(=O)[C@H](CCN)NC(=O)[C@@H](CC(C)C)NC(=O)[C@H](CCN)NC(=O)[C@H](CCCNC(N)=O)NC(=O)[C@H](Cc3ccc(-c4ccccc4)cc3)NC(=O)[C@H](C(C)C)NC2=O)c1` [Compound 2798] ({CH2CO}-RY(Carboxymethyl)D[Phe(3-Me)]V[Bip][Cit][Dab][dL][Dab][Cha]VQC[Orn][Aun]-OH; thioether N-14): the IC50 is 7.1 nM. On to `Cc1cccc(C[C@@H]2NC(=O)[C@H](CC(=O)O)NC(=O)[C@H](Cc3ccc(OCC(=O)O)cc3)NC(=O)[C@H](CCCNC(=N)N)NC(=O)CSC[C@@H](C(=O)N[C@@H](CCCN)C(=O)NCCCCCCCCCCC(=O)O)NC(=O)[C@@H](CCC(N)=O)NC(=O)[C@H](C(C)C)NC(=O)[C@H](CC3CCCCC3)NC(=O)[C@H](CCN)NC(=O)[C@@H](CC(C)C)NC(=O)[C@H](CCN)NC(=O)[C@H](CCCNC(N)=O)NC(=O)[C@H](Cc3ccc(-c4ccccc4)cc3)NC(=O)[C@H](C(C)C)NC2=O)c1` [Compound 2799] ({CH2CO}-RY(Carboxymethyl)D[Phe(3-Me)]V[Bip][Cit][Dab][dL][Dab][Cha]V[dQ]C[Orn][Aun]-OH; thioether N-14), for which the IC50 came out at 20 nM.

In the case of `Cc1cccc(C[C@@H]2NC(=O)[C@H](CC(=O)O)NC(=O)[C@H](Cc3ccc(O)cc3)NC(=O)[C@H](CC(N)=O)NC(=O)CSC[C@@H](C(=O)N[C@@H](CCCCN)C(=O)NCCCCCCCCCCC(=O)O)NC(=O)[C@H](CN)NC(=O)[C@H](C(C)C)NC(=O)[C@H](CC(C)C)NC(=O)[C@H](CCN)NC(=O)[C@@H](CC(C)C)NC(=O)[C@H](CCCN)NC(=O)[C@H](CCCNC(N)=O)NC(=O)[C@H](Cc3ccc(-c4ccccc4)cc3)NC(=O)[C@H](C(C)C)NC2=O)c1` [Compound 2800] ({CH2CO}-NYD[Phe(3-Me)]V[Bip][Cit][Orn][dL][Dab]LV[Dap]CK[Aun]-OH; thioether N-14), the IC50 came to 84.6 nM. Take `CC(C)C[C@H]1NC(=O)[C@H](CCCN)NC(=O)[C@H](C(C)C)NC(=O)[C@H](Cc2ccc(-c3ccccc3)cc2)NC(=O)[C@H](C(C)C)NC(=O)[C@H](Cc2c[nH]c3ccccc23)NC(=O)[C@H](CC(=O)O)NC(=O)[C@H](Cc2ccc(OCC(=O)O)cc2)NC(=O)[C@H](CN)NC(=O)CSC[C@@H](C(=O)N[C@@H](CCCCN)C(=O)NCCCCCCCCCCC(=O)O)NC(=O)[C@H](CN)NC(=O)[C@H](C(C)C)NC(=O)[C@H](CC2CCCCC2)NC(=O)[C@H](Cc2cc[nH]c2)NC1=O` [Compound 2801] ({CH2CO}-[Dap]Y(Carboxymethyl)DWV[Bip]V[Orn][dL][X10][Cha]V[Dap]CK[Aun]-OH; thioether N-14): the IC50 was determined as 327 nM. Take `Cc1cccc(C[C@@H]2NC(=O)[C@H](CC(=O)O)NC(=O)[C@H](Cc3ccc(OCC(=O)O)cc3)NC(=O)[C@H](CCCNC(=N)N)NC(=O)CSC[C@@H](C(=O)N[C@@H](CCCCN)C(=O)NCCCCCCCCCCC(=O)O)NC(=O)[C@H](CN)NC(=O)[C@H](C(C)C)NC(=O)[C@H](CC3CCCCC3)NC(=O)[C@H](CCN)NC(=O)[C@@H](CC(C)C)NC(=O)[C@H](CCN)NC(=O)[C@H](CCCNC(N)=O)NC(=O)[C@H](Cc3ccc(-c4ccccc4)cc3)NC(=O)[C@H](C(C)C)NC2=O)c1` [Compound 2802] ({CH2CO}-RY(Carboxymethyl)D[Phe(3-Me)]V[Bip][Cit][Dab][dL][Dab][Cha]V[Dap]CK[Aun]-OH; thioether N-14): the IC50 worked out at 15.4 nM. For `Cc1cccc(C[C@@H]2NC(=O)[C@H](CC(=O)O)NC(=O)[C@H](Cc3ccc(O)cc3)NC(=O)[C@H](CC(N)=O)NC(=O)CSC[C@@H](C(=O)N[C@@H](CCCCN)C(=O)NCCCCCCCCCCC(=O)O)NC(=O)[C@H](CCCN)NC(=O)[C@H](C(C)C)NC(=O)[C@H](CC(C)C)NC(=O)[C@H](CCN)NC(=O)[C@@H](CC(C)C)NC(=O)[C@H](CCCN)NC(=O)[C@H](CCCNC(N)=O)NC(=O)[C@H](Cc3ccc(-c4ccccc4)cc3)NC(=O)[C@H](C(C)C)NC2=O)c1` [Compound 2803] ({CH2CO}-NYD[Phe(3-Me)]V[Bip][Cit][Orn][dL][Dab]LV[Orn]CK[Aun]-OH; thioether N-14), the IC50 worked out at 73.9 nM. For the molecule `CC(C)C[C@H]1NC(=O)[C@H](CCCN)NC(=O)[C@H](C(C)C)NC(=O)[C@H](Cc2ccc(-c3ccccc3)cc2)NC(=O)[C@H](C(C)C)NC(=O)[C@H](Cc2c[nH]c3ccccc23)NC(=O)[C@H](CC(=O)O)NC(=O)[C@H](Cc2ccc(OCC(=O)O)cc2)NC(=O)[C@H](CN)NC(=O)CSC[C@@H](C(=O)N[C@@H](CCCCN)C(=O)NCCCCCCCCCCC(=O)O)NC(=O)[C@H](CCCN)NC(=O)[C@H](C(C)C)NC(=O)[C@H](CC2CCCCC2)NC(=O)[C@H](Cc2c[nH]cn2)NC1=O` [Compound 2804] ({CH2CO}-[Dap]Y(Carboxymethyl)DWV[Bip]V[Orn][dL]H[Cha]V[Orn]CK[Aun]-OH; thioether N-14), the IC50 stood at 51 nM. Take `Cc1cccc(C[C@@H]2NC(=O)[C@H](CC(=O)O)NC(=O)[C@H](Cc3ccc(OCC(=O)O)cc3)NC(=O)[C@H](CCCNC(=N)N)NC(=O)CSC[C@@H](C(=O)N[C@@H](CCCCN)C(=O)NCCCCCCCCCCC(=O)O)NC(=O)[C@H](CCCN)NC(=O)[C@H](C(C)C)NC(=O)[C@H](CC3CCCCC3)NC(=O)[C@H](CCN)NC(=O)[C@@H](CC(C)C)NC(=O)[C@H](CCN)NC(=O)[C@H](CCCNC(N)=O)NC(=O)[C@H](Cc3ccc(-c4ccccc4)cc3)NC(=O)[C@H](C(C)C)NC2=O)c1` [Compound 2805] ({CH2CO}-RY(Carboxymethyl)D[Phe(3-Me)]V[Bip][Cit][Dab][dL][Dab][Cha]V[Orn]CK[Aun]-OH; thioether N-14): the concentration for half-maximal inhibition (IC50) stood at 9.9 nM.

As to `Cc1cccc(C[C@@H]2NC(=O)[C@H](CC(=O)O)NC(=O)[C@H](Cc3ccc(OCC(=O)O)cc3)NC(=O)[C@H](CN)NC(=O)CSC[C@@H](C(=O)N[C@H](CO)C(=O)N[C@@H](CCC(=O)O)C(=O)NCCCCCCCCCCC(=O)O)NC(=O)[C@H]([C@@H](C)O)NC(=O)[C@H](C(C)C)NC(=O)[C@H](CC3CCCCC3)NC(=O)[C@H](CCN)NC(=O)[C@@H](CC(C)C)NC(=O)[C@H](CCCN)NC(=O)[C@H](CCCNC(N)=O)NC(=O)[C@H](Cc3ccc(-c4ccccc4)cc3)NC(=O)[C@H](C(C)C)NC2=O)c1` [Compound 2807] ({CH2CO}-[Dap]Y(Carboxymethyl)D[Phe(3-Me)]V[Bip][Cit][Orn][dL][Dab][Cha]VTC[dS]E[Aun]-OH; thioether N-14), the IC50 was found to be 16.5 nM. For `Cc1cccc(C[C@@H]2NC(=O)[C@H](CC(=O)O)NC(=O)[C@H](Cc3ccc(OCC(=O)O)cc3)NC(=O)[C@H](CN)NC(=O)CSC[C@@H](C(=O)N(C)[C@H](C)C(=O)N[C@@H](CCC(=O)O)C(=O)NCCCCCCCCCCC(=O)O)NC(=O)[C@H]([C@@H](C)O)NC(=O)[C@H](C(C)C)NC(=O)[C@H](CC3CCCCC3)NC(=O)[C@H](CCN)NC(=O)[C@@H](CC(C)C)NC(=O)[C@H](CCCN)NC(=O)[C@H](CCCNC(N)=O)NC(=O)[C@H](Cc3ccc(-c4ccccc4)cc3)NC(=O)[C@H](C(C)C)NC2=O)c1` [Compound 2809] ({CH2CO}-[Dap]Y(Carboxymethyl)D[Phe(3-Me)]V[Bip][Cit][Orn][dL][Dab][Cha]VTC[dNMeA]E[Aun]-OH; thioether N-14) the value was 180 nM; for `Cc1cccc(C[C@@H]2NC(=O)[C@H](CC(=O)O)NC(=O)[C@H](Cc3ccc(CCC(=O)O)cc3)NC(=O)[C@H](CN)NC(=O)CSC[C@@H](C(=O)N[C@@H](CCN)C(=O)N[C@@H](CO)C(=O)NCCCCCCCCCCC(=O)O)NC(=O)[C@H]([C@@H](C)O)NC(=O)[C@H](C(C)C)NC(=O)[C@H](CC3CCCCC3)NC(=O)[C@H](CCN)NC(=O)[C@@H](CC(C)C)NC(=O)[C@H](CCCN)NC(=O)[C@H](CCCNC(N)=O)NC(=O)[C@H](Cc3ccc(-c4ccccc4)cc3)NC(=O)[C@H](C(C)C)NC2=O)c1` [Compound 2811] ({CH2CO}-[Dap][Phe(4-CH2CH2COOH)]D[Phe(3-Me)]V[Bip][Cit][Orn][dL][Dab][Cha]VTC[Dab]S[Aun]-OH; thioether N-14), 34.1 nM; for `Cc1cccc(C[C@@H]2NC(=O)[C@H](CC(=O)O)NC(=O)[C@H](Cc3ccc(CCC(=O)O)cc3)NC(=O)[C@H](CN)NC(=O)CSC[C@@H](C(=O)N[C@@H](CCCN)C(=O)N[C@@H](CO)C(=O)NCCCCCCCCCCC(=O)O)NC(=O)[C@H]([C@@H](C)O)NC(=O)[C@H](C(C)C)NC(=O)[C@H](CC3CCCCC3)NC(=O)[C@H](CCN)NC(=O)[C@@H](CC(C)C)NC(=O)[C@H](CCCN)NC(=O)[C@H](CCCNC(N)=O)NC(=O)[C@H](Cc3ccc(-c4ccccc4)cc3)NC(=O)[C@H](C(C)C)NC2=O)c1` [Compound 2812] ({CH2CO}-[Dap][Phe(4-CH2CH2COOH)]D[Phe(3-Me)]V[Bip][Cit][Orn][dL][Dab][Cha]VTC[Orn]S[Aun]-OH; thioether N-14), 24 nM.
